# ChEMBL document CHEMBL3885861, “Open TG-GATES”
# Species on record: Rattus norvegicus
# Experiment: Open TG-GATES - Regimen: Daily Repeat
# Assay type: toxicity, organism-based, Sprague-Dawley
# Set-up: regimen Daily Repeat, gender Male, age 6 weeks
# Conditions: in vivo, iv, route intravenous injection; for KIDNEY_L / KIDNEY_R / KIDNEY_TOTAL: tissue Kidney; for LIVER: tissue Liver; for ALP / ALT / AST / CRE / DBIL / GLC / IP / K / LDH / PL / RALB / TBIL / TC / TG / TP / gamma-GTP / Na / Ca / BUN: tissue Plasma
# [1] = 3 mg/kg, 72 h, dose level Middle, time 3 day
# [2] = 3 mg/kg, 72 h, tissue Blood, dose level Middle, time 3 day
# [3] = 3 mg/kg, […], dose level Middle, time 7 day
# [4] = 3 mg/kg, […], dose level Middle, time 14 day
# [5] = 3 mg/kg, […], dose level Middle, time 28 day
# [6] = 3 mg/kg, […], tissue Blood, dose level Middle, time 7 day
# [7] = 3 mg/kg, […], tissue Blood, dose level Middle, time 14 day
# [8] = 3 mg/kg, […], tissue Blood, dose level Middle, time 28 day
# [9] = 10 mg/kg, 72 h, dose level High, time 3 day
# [10] = 10 mg/kg, 72 h, tissue Blood, dose level High, time 3 day
# [11] = 10 mg/kg, […], dose level High, time 7 day
# [12] = 10 mg/kg, […], dose level High, time 14 day
# [13] = 10 mg/kg, […], dose level High, time 28 day
# [14] = 10 mg/kg, […], tissue Blood, dose level High, time 7 day
# [15] = 10 mg/kg, […], tissue Blood, dose level High, time 14 day
# [16] = 10 mg/kg, […], tissue Blood, dose level High, time 28 day
sequence,measurement,setting,value
CARBOPLATIN,TERMINAL_BW,[1],220.6 g
same,APTT,[2],24.1 s
same,Bas,[2],0%
same,Eos,[2],1.2%
same,Fbg,[2],324.4 mg/dL
same,Ht,[2],41.2%
same,Lym,[2],74.6%
same,MCHC,[2],32.6%
same,MCV,[2],62.7 fL
same,Mono,[2],3%
same,Neu,[2],20.6%
same,PT,[2],16.5 s
same,Plat,[2],127.4 x10_4/uL
same,RBC,[2],657.4 x10_4/ul
same,Ret,[2],4%
same,WBC,[2],89.9 x10_2/uL
same,KIDNEY_L,[1],0.9 g
same,KIDNEY_R,[1],0.9 g
same,KIDNEY_TOTAL,[1],1.9 g
same,LIVER,[1],9.8 g
same,ALP,[1],1530.2 IU/L
same,ALT,[1],43 IU/L
same,AST,[1],74.8 IU/L
same,CRE,[1],0.2 mg/dL
same,DBIL,[1],0 mg/dL
same,GLC,[1],173.6 mg/dL
same,IP,[1],7.1 mg/dL
same,K,[1],4.7 meq/L
same,LDH,[1],185.8 IU/L
same,PL,[1],129.2 mg/dL
same,RALB,[1],3.1 g/dL
same,TBIL,[1],0.004 mg/dL
same,TC,[1],65 mg/dL
same,TG,[1],104.6 mg/dL
same,TP,[1],5.5 g/dL
same,gamma-GTP,[1],1.4 IU/L
same,TERMINAL_BW,[3],244.7 g
same,TERMINAL_BW,[4],304.5 g
same,TERMINAL_BW,[5],349.4 g
same,APTT,[6],23.6 s
same,Bas,[6],0%
same,Eos,[6],0.8%
same,Fbg,[6],296.2 mg/dL
same,MCHC,[6],32.4%
same,MCV,[6],62.2 fL
same,Mono,[6],2.4%
same,Neu,[6],16.6%
same,Plat,[6],130.4 x10_4/uL
same,RBC,[6],649.2 x10_4/ul
same,Ret,[6],4.6%
same,WBC,[6],97.3 x10_2/uL
same,APTT,[7],25.4 s
same,Bas,[7],0%
same,Eos,[7],0.6%
same,Fbg,[7],327 mg/dL
same,Hb,[7],14 g/dL
same,Ht,[7],41.1%
same,Lym,[7],86%
same,MCHC,[7],34%
same,MCV,[7],61.4 fL
same,Mono,[7],3.2%
same,Neu,[7],9.2%
same,Plat,[7],119.2 x10_4/uL
same,RBC,[7],670 x10_4/ul
same,Ret,[7],2.8%
same,WBC,[7],100.3 x10_2/uL
same,APTT,[8],26.7 s
same,Bas,[8],0%
same,Eos,[8],0.8%
same,Fbg,[8],332.2 mg/dL
same,Ht,[8],42.1%
same,Lym,[8],83%
same,MCH,[8],19 pg
same,MCHC,[8],35.1%
same,MCV,[8],54.2 fL
same,Mono,[8],2.8%
same,Plat,[8],118.9 x10_4/uL
same,RBC,[8],777.6 x10_4/ul
same,Ret,[8],1.9%
same,WBC,[8],87.9 x10_2/uL
same,KIDNEY_L,[3],1.1 g
same,KIDNEY_R,[3],1.1 g
same,KIDNEY_TOTAL,[3],2.1 g
same,KIDNEY_L,[4],1.3 g
same,KIDNEY_R,[4],1.3 g
same,KIDNEY_TOTAL,[4],2.5 g
same,KIDNEY_L,[5],1.3 g
same,KIDNEY_R,[5],1.3 g
same,KIDNEY_TOTAL,[5],2.6 g
same,LIVER,[3],11.2 g
same,LIVER,[4],13.5 g
same,LIVER,[5],13.9 g
same,ALP,[3],1757.2 IU/L
same,ALT,[3],40.6 IU/L
same,AST,[3],82.6 IU/L
same,CRE,[3],0.2 mg/dL
same,DBIL,[3],0 mg/dL
same,GLC,[3],169.6 mg/dL
same,IP,[3],7 mg/dL
same,K,[3],4.7 meq/L
same,LDH,[3],186 IU/L
same,Na,[3],140 meq/L
same,PL,[3],143 mg/dL
same,RALB,[3],3.1 g/dL
same,TBIL,[3],0.006 mg/dL
same,TC,[3],70.4 mg/dL
same,TG,[3],110 mg/dL
same,TP,[3],5.6 g/dL
same,gamma-GTP,[3],1.6 IU/L
same,ALP,[4],1299.2 IU/L
same,ALT,[4],41.4 IU/L
same,AST,[4],84.2 IU/L
same,CRE,[4],0.2 mg/dL
same,Ca,[4],11 mg/dL
same,DBIL,[4],0 mg/dL
same,GLC,[4],170.4 mg/dL
same,IP,[4],6.8 mg/dL
same,K,[4],4.4 meq/L
same,LDH,[4],147 IU/L
same,PL,[4],148 mg/dL
same,RALB,[4],3.2 g/dL
same,TBIL,[4],0.006 mg/dL
same,TC,[4],74.2 mg/dL
same,TG,[4],131.2 mg/dL
same,TP,[4],6 g/dL
same,gamma-GTP,[4],3.4 IU/L
same,ALP,[5],1001.8 IU/L
same,ALT,[5],40.6 IU/L
same,AST,[5],78 IU/L
same,BUN,[5],18 mg/dL
same,CRE,[5],0.2 mg/dL
same,Ca,[5],11 mg/dL
same,DBIL,[5],0 mg/dL
same,GLC,[5],179.6 mg/dL
same,IP,[5],6.1 mg/dL
same,K,[5],4.2 meq/L
same,LDH,[5],131 IU/L
same,PL,[5],134.2 mg/dL
same,RALB,[5],3.2 g/dL
same,TBIL,[5],0.004 mg/dL
same,TC,[5],72.4 mg/dL
same,TG,[5],96 mg/dL
same,TP,[5],6.3 g/dL
same,gamma-GTP,[5],2 IU/L
same,TERMINAL_BW,[9],210.3 g
same,APTT,[10],23.5 s
same,Bas,[10],0%
same,Eos,[10],1.2%
same,Fbg,[10],288 mg/dL
same,Hb,[10],13 g/dL
same,Ht,[10],39.9%
same,Lym,[10],85.8%
same,MCHC,[10],32.7%
same,MCV,[10],62.8 fL
same,Mono,[10],3.2%
same,Neu,[10],8.8%
same,PT,[10],16.4 s
same,Plat,[10],122.5 x10_4/uL
same,RBC,[10],635.4 x10_4/ul
same,Ret,[10],2.7%
same,WBC,[10],75.4 x10_2/uL
same,KIDNEY_L,[9],0.9 g
same,KIDNEY_R,[9],1 g
same,KIDNEY_TOTAL,[9],1.9 g
same,LIVER,[9],9.3 g
same,ALP,[9],1408.4 IU/L
same,ALT,[9],33.8 IU/L
same,BUN,[9],16.4 mg/dL
same,CRE,[9],0.2 mg/dL
same,DBIL,[9],0.002 mg/dL
same,GLC,[9],170.4 mg/dL
same,IP,[9],7 mg/dL
same,K,[9],4.6 meq/L
same,Na,[9],140.2 meq/L
same,PL,[9],129.6 mg/dL
same,RALB,[9],3.1 g/dL
same,TBIL,[9],0.008 mg/dL
same,TC,[9],63.2 mg/dL
same,TG,[9],84.4 mg/dL
same,TP,[9],5.5 g/dL
same,gamma-GTP,[9],1.4 IU/L
same,TERMINAL_BW,[11],215.5 g
same,TERMINAL_BW,[12],246.4 g
same,TERMINAL_BW,[13],260.5 g
same,APTT,[14],27.1 s
same,Bas,[14],0%
same,Eos,[14],0.8%
same,Fbg,[14],285.8 mg/dL
same,Hb,[14],13.7 g/dL
same,Ht,[14],41.4%
same,Lym,[14],83.6%
same,MCV,[14],62.3 fL
same,Mono,[14],4.8%
same,Neu,[14],9.6%
same,PT,[14],15.7 s
same,Plat,[14],124.5 x10_4/uL
same,RBC,[14],665.8 x10_4/ul
same,Ret,[14],1.5%
same,WBC,[14],46.7 x10_2/uL
same,APTT,[15],26.8 s
same,Bas,[15],0%
same,Eos,[15],0.4%
same,Fbg,[15],299.6 mg/dL
same,Hb,[15],14.1 g/dL
same,Lym,[15],80.8%
same,MCHC,[15],33.9%
same,MCV,[15],59.3 fL
same,Mono,[15],4.6%
same,Plat,[15],50.2 x10_4/uL
same,RBC,[15],701 x10_4/ul
same,Ret,[15],0.8%
same,WBC,[15],57.1 x10_2/uL
same,APTT,[16],25.4 s
same,Bas,[16],0%
same,Eos,[16],0%
same,Fbg,[16],275.2 mg/dL
same,Hb,[16],11.8 g/dL
same,Ht,[16],33.8%
same,Lym,[16],81%
same,MCHC,[16],34.8%
same,MCV,[16],55.8 fL
same,Mono,[16],3.6%
same,PT,[16],15.6 s
same,Plat,[16],66.5 x10_4/uL
same,RBC,[16],607.8 x10_4/ul
same,Ret,[16],3.1%
same,WBC,[16],60.4 x10_2/uL
same,KIDNEY_L,[11],0.9 g
same,KIDNEY_R,[11],1 g
same,KIDNEY_TOTAL,[11],1.9 g
same,KIDNEY_L,[12],1.1 g
same,KIDNEY_R,[12],1.1 g
same,KIDNEY_TOTAL,[12],2.2 g
same,KIDNEY_L,[13],1.2 g
same,KIDNEY_R,[13],1.2 g
same,KIDNEY_TOTAL,[13],2.4 g
same,LIVER,[11],8.8 g
same,ALP,[11],1401.8 IU/L
same,ALT,[11],41.4 IU/L
same,AST,[11],102 IU/L
same,CRE,[11],0.2 mg/dL
same,DBIL,[11],0.002 mg/dL
same,GLC,[11],170.8 mg/dL
same,IP,[11],7.3 mg/dL
same,K,[11],4.4 meq/L
same,Na,[11],140.4 meq/L
same,PL,[11],118.6 mg/dL
same,RALB,[11],3.2 g/dL
same,TBIL,[11],0.012 mg/dL
same,TC,[11],66 mg/dL
same,TG,[11],38.2 mg/dL
same,TP,[11],6 g/dL
same,gamma-GTP,[11],1 IU/L
same,ALP,[12],1127 IU/L
same,ALT,[12],48 IU/L
same,AST,[12],93.2 IU/L
same,BUN,[12],16.6 mg/dL
same,CRE,[12],0.2 mg/dL
same,DBIL,[12],0 mg/dL
same,GLC,[12],170.4 mg/dL
same,IP,[12],6.6 mg/dL
same,K,[12],4.5 meq/L
same,LDH,[12],161 IU/L
same,PL,[12],139.8 mg/dL
same,RALB,[12],3.2 g/dL
same,TBIL,[12],0.016 mg/dL
same,TC,[12],74.8 mg/dL
same,TG,[12],83.4 mg/dL
same,TP,[12],5.8 g/dL
same,gamma-GTP,[12],1.8 IU/L
same,ALP,[13],682.8 IU/L
same,ALT,[13],40 IU/L
same,AST,[13],97.8 IU/L
same,BUN,[13],22 mg/dL
same,CRE,[13],0.2 mg/dL
same,DBIL,[13],0.016 mg/dL
same,GLC,[13],170 mg/dL
same,IP,[13],6.2 mg/dL
same,K,[13],4.5 meq/L
same,LDH,[13],533 IU/L
same,PL,[13],127.8 mg/dL
same,RALB,[13],3 g/dL
same,TBIL,[13],0.052 mg/dL
same,TC,[13],78.6 mg/dL
same,TG,[13],48.8 mg/dL
same,TP,[13],6 g/dL
same,gamma-GTP,[13],1.8 IU/L
